From ChEMBL document CHEMBL5653631, “A Potent and Selective ULK1 Inhibitor Suppresses Autophagy and Sensitizes Cancer Cells to Nutrient Stress” (iScience, 2018)

How the values were obtained:
[1] = target: T1, Serine/threonine-protein kinase TAO2 (Homo sapiens) (UniProt Q9UL54); experiment: Inhibition of human recombinant TAO2 at 500 nM in presence of ATP by radiometric assay relative to control
T1 sequence (whole entry): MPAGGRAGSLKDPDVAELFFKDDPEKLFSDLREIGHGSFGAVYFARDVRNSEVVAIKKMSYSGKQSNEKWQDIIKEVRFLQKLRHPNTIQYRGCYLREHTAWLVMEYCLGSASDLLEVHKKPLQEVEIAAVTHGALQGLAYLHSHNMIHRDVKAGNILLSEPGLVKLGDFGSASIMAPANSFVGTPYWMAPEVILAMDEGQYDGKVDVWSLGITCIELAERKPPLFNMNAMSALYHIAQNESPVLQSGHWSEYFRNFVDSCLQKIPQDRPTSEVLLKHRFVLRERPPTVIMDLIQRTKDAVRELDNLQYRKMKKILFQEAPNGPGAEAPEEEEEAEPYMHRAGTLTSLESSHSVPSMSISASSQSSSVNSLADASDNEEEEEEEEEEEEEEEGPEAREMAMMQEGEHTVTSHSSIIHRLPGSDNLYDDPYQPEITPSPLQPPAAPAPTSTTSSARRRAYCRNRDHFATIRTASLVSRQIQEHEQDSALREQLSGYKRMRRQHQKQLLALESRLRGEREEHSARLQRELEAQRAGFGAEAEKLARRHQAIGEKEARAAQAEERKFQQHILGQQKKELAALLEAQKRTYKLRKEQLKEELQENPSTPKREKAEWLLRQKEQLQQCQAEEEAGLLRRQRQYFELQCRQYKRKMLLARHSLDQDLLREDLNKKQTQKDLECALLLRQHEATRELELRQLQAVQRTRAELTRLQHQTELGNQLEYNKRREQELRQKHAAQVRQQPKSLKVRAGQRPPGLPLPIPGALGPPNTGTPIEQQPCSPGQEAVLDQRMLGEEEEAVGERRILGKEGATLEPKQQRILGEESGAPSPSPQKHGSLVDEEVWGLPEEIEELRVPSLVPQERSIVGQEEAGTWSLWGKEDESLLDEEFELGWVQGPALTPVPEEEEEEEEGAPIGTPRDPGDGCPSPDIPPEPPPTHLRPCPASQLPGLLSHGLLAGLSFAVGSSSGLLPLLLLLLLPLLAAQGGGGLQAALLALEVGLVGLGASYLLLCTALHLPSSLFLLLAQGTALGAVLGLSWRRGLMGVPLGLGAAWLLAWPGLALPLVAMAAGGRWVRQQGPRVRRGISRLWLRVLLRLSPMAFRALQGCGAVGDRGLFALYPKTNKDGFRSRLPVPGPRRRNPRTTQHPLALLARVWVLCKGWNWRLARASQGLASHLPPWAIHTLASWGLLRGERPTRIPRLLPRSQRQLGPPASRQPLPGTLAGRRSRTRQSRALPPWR

[2] = target: Ribosomal protein S6 kinase alpha-5 (Homo sapiens) (UniProt O75582); experiment: Inhibition of human recombinant MSK1 at 500 nM in presence of ATP by radiometric assay relative to control
[3] = target: T2, cGMP-dependent protein kinase 2 (Homo sapiens) (UniProt Q13237); experiment: Inhibition of human recombinant PKG2 at 500 nM related to control ULK1
T2 sequence (whole entry): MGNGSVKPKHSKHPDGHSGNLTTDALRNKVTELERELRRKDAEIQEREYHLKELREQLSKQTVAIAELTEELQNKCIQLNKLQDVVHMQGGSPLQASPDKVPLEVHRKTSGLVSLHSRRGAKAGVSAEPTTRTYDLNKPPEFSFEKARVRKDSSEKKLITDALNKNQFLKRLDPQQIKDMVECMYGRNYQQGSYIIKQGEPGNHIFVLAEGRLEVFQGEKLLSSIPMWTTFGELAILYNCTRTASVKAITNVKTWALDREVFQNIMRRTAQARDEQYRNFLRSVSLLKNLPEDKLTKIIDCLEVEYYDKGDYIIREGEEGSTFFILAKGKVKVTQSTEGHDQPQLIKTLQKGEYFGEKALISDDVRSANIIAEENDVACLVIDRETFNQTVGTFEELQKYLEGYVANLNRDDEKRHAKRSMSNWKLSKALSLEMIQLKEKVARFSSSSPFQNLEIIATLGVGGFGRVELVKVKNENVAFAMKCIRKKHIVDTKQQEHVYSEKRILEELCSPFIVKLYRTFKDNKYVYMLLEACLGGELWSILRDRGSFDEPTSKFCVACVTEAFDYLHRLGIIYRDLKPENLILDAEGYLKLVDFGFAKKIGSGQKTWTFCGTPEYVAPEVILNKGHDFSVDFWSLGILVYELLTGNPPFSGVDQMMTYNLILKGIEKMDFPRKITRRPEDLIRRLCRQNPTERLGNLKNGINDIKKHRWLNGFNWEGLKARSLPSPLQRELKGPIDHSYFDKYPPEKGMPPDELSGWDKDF

Chain of Ribosomal protein S6 kinase alpha-5 (Homo sapiens) (O75582 whole entry, looked up): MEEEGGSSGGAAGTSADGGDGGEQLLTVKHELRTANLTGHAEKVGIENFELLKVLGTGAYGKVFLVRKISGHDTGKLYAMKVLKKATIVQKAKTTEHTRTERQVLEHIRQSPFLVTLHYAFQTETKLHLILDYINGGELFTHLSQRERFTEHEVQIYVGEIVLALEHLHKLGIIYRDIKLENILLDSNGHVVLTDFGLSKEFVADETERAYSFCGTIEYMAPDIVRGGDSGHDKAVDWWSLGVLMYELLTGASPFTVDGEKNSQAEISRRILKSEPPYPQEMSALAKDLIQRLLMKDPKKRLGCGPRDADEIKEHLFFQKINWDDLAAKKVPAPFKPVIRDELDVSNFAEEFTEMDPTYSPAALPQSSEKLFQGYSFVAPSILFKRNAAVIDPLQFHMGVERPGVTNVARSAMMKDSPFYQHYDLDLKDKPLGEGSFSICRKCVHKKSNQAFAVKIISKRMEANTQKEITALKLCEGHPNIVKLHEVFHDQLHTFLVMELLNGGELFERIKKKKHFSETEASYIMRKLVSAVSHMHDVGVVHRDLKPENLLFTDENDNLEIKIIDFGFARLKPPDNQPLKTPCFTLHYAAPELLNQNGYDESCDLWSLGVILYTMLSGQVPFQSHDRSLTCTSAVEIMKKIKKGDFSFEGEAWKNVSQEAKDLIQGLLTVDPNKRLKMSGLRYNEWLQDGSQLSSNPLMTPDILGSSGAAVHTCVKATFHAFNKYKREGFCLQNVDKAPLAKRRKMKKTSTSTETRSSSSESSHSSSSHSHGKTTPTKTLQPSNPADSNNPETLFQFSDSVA

## CNC(=O)c1ccccc1Oc1nc(Nc2cc(OC)c(OC)c(OC)c2)ncc1Br
[1]
  inhibition: 0%
[2]
  inhibition: 11%
[3]
  fold change (FC): 0.03
